Test results taken from patent publication US20060069132A1, “Azolecarboxamide herbicides” (priority 2004, published 2006).

Assays:
corn = assay: Test B pre-/postemergence herbicide test; format: in vivo, Zea mays; conditions: for Corn plant response rating: postemergence, visual rating, scale 0 (no effect) to 100 (complete control)
Outline: (§1)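 Evaluation is visual, comparing treated with control plants on a scale where 0 means no effect and 100 means full control. Treatments were preemergence, or postemergence on seedlings 2–18 cm tall, and held 13–15 days in the greenhouse.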

large crabgrass [1] = assay: Test A pre-/postemergence herbicide test; format: in vivo, Digitaria sanguinalis
Outline: (§2)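 Greenhouse injury scoring (0–100, complete control = 100) at approximately ten days follows simultaneous pre- and postemergence application. Soil received a directed spray after seeding; seedlings of 2–10 cm at the one- to two-leaf stage were sprayed to runoff.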

rice [2] = assay: Test B flooded paddy test; format: in vivo, Oryza sativa; conditions: 1000 g ai/ha, visual rating, scale 0 to 100 (0 no effect, 100 complete control), 13 to 15 days
Outline: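 Each value is a visual 0–100 response rating taken against controls 13 to 15 days after treatment in the greenhouse. Plants received formulated chemical postemergence at the 1- to 4-leaf stage or, in flooded paddy, at the 2-leaf stage.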

pigweed = assay: Test B pre-/postemergence herbicide test; format: in vivo, Amaranthus retroflexus; conditions: for Pigweed plant response rating: postemergence, visual rating, scale 0 (no effect) to 100 (complete control)
Outline: as §1

rice [3] = assay: Test B pre-/postemergence herbicide test; format: in vivo, Oryza sativa; conditions: preemergence
Outline: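 Plants compared with untreated controls 13–15 days post-treatment and given a visual 0–100 injury score. Applications: preemergence to seeds; postemergence at 1- to 4-leaf (2–18 cm); paddy species flooded, 2-leaf stage. Vehicle non-phytotoxic, surfactant included.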

barnyardgrass [4] = assay: Test B flooded paddy test; format: in vivo, Echinochloa crus-galli; conditions: 1000 g ai/ha, visual rating, scale 0 to 100 (0 no effect, 100 complete control), 13 to 15 days
Outline: (§3)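 Scale 0–100: zero equals no visible effect, 100 complete control, judged by eye relative to controls. Timing: 13 to 15 days in greenhouse post-treatment. Growth stage at spraying: two leaves (paddy) or one to four leaves, 2–18 cm (postemergence).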

large crabgrass [5] = assay: Test B pre-/postemergence herbicide test; format: in vivo, Digitaria sanguinalis; conditions: for Crabgrass, Large plant response rating: postemergence, visual rating, scale 0 (no effect) to 100 (complete control)
Outline: as §1

giant foxtail [6] = assay: Test B pre-/postemergence herbicide test; format: in vivo, Setaria faberi; conditions: for Foxtail, Giant plant response rating: postemergence, visual rating, scale 0 (no effect) to 100 (complete control)
Outline: as §1

wheat = assay: Test B postemergence herbicide test; format: in vivo, Triticum aestivum; parameters: key to Wheat plant response rating: 0 = no effect, 100 = complete control; conditions: postemergence, visual rating, scale 0 (no effect) to 100 (complete control)
Outline: as §3

blackgrass = assay: Test B postemergence herbicide test; format: in vivo, Alopecurus myosuroides; conditions: postemergence, visual rating, scale 0 (no effect) to 100 (complete control)
Outline: as §3

giant foxtail [7] = assay: Test A pre-/postemergence herbicide test; format: in vivo, Setaria faberi
Outline: as §2

velvetleaf [8] = assay: Test B pre-/postemergence herbicide test; format: in vivo, Abutilon theophrasti; conditions: for Velvetleaf plant response rating: postemergence, visual rating, scale 0 (no effect) to 100 (complete control)
Outline: as §1

redroot pigweed = assay: Test A pre-/postemergence herbicide test; format: in vivo, Amaranthus retroflexus
Outline: as §2

Surinam grass = assay: Test B pre-/postemergence herbicide test; format: in vivo, Urochloa decumbens; conditions: for Surinam Grass plant response rating: postemergence, visual rating, scale 0 (no effect) to 100 (complete control)
Outline: as §1

barnyardgrass [9] = assay: Test A pre-/postemergence herbicide test; format: in vivo, Echinochloa crus-galli
Outline: as §2

barnyardgrass [10] = assay: Test B pre-/postemergence herbicide test; format: in vivo, Echinochloa crus-galli; conditions: for Barnyardgrass plant response rating: postemergence, visual rating, scale 0 (no effect) to 100 (complete control)
Outline: (§4)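 Formulation: non-phytotoxic solvent mix with surfactant. Timing: preemergence on seed and postemergence on 2–18 cm plants, applied concurrently. Readout after 13–15 d greenhouse: visual 0–100 control rating against controls.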

lambsquarters = assay: Test B pre-/postemergence herbicide test; format: in vivo, Chenopodium album; conditions: for Lambsquarters plant response rating: postemergence, visual rating, scale 0 (no effect) to 100 (complete control)
Outline: as §1

ducksalad = assay: Test B flooded paddy test; format: in vivo, Heteranthera limosa; conditions: 1000 g ai/ha, visual rating, scale 0 to 100 (0 no effect, 100 complete control), 13 to 15 days
Outline: as §3

morningglory [11] = assay: Test B pre-/postemergence herbicide test; format: in vivo, Ipomoea coccinea; conditions: for Morningglory plant response rating: postemergence, visual rating, scale 0 (no effect) to 100 (complete control)
Outline: as §4

[12] = test system: small flower umbrella sedge; assay: Test B flooded paddy test; format: in vivo, Cyperus difformis; conditions: 1000 g ai/ha, visual rating, scale 0 to 100 (0 no effect, 100 complete control), 13 to 15 days
Outline: as §3

morningglory [13] = assay: Test A pre-/postemergence herbicide test; format: in vivo, Ipomoea spp.
Outline: as §2

velvetleaf [14] = assay: Test A pre-/postemergence herbicide test; format: in vivo, Abutilon theophrasti
Outline: as §2

wild oat = assay: Test B postemergence herbicide test; format: in vivo, Avena fatua; conditions: postemergence, visual rating, scale 0 (no effect) to 100 (complete control)
Outline: as §3

cocklebur = assay: Test B pre-/postemergence herbicide test; format: in vivo, Xanthium strumarium; conditions: postemergence, visual rating, scale 0 (no effect) to 100 (complete control)
Outline: as §4

[15] = 500 g ai/ha, visual rating 0-100, 0 no effect, 100 complete control, preemergence
[16] = Postemergence, 500 g ai/ha, 0 to 100 scale, 0 no effect, 100 complete control
[17] = Postemergence, 2000 g ai/ha, 0 to 100 scale, 0 no effect, 100 complete control
[18] = Preemergence, 2000 g ai/ha, visual rating, 0 to 100 scale (0 no effect, 100 complete control)
[19] = preemergence, 500 g ai/ha, visual injury, 0 to 100 scale (0 no effect, 100 complete control)
[20] = 125 g ai/ha, 0 = no effect, 100 = complete control, preemergence

CCn1nc(C(C)(C)C)cc1C(=O)Nc1nc(OC)cc(SCF)n1 [Compound 167]
10: Foxtail, Giant plant response rating (giant foxtail [7]; [18]) | Plant response rating, Morningglory (morningglory [13]; [17]) | Velvetleaf plant response rating (velvetleaf [14]; [16]) | Velvetleaf plant response rating (velvetleaf [14]; [18])
50: Pigweed plant response rating (redroot pigweed; [18])
20: Plant response rating, Velvetleaf (velvetleaf [14]; [17])
0: Plant response rating, Corn (corn; [15]) | Corn plant response rating (corn; 125 g ai/ha) | Corn plant response rating (corn; 500 g ai/ha) | Crabgrass, Large plant response rating (large crabgrass [1]; [16]) | Crabgrass, Large plant response rating (large crabgrass [1]; [19]) | Rice plant response rating (rice [2]) | Pigweed plant response rating (0 to 100 scale) (pigweed; [20]) | Plant response rating, Pigweed (pigweed; [15]) | Pigweed plant response rating (pigweed; 125 g ai/ha) | Pigweed plant response rating (pigweed; 500 g ai/ha) | Rice plant response rating (0 to 100 scale) (rice [3]; 125 g ai/ha, 0 = no effect, 100 = complete control) | Plant response rating, Rice (rice [3]; 500 g ai/ha, visual rating 0-100, 0 no effect, 100 complete control) | Barnyardgrass plant response rating (barnyardgrass [4]) | Crabgrass, Large plant response rating (0 to 100 scale) (large crabgrass [5]; [20]) | Plant response rating, Crabgrass, Large (large crabgrass [5]; [15]) | Crabgrass, Large plant response rating (large crabgrass [5]; 125 g ai/ha) | Crabgrass, Large plant response rating (large crabgrass [5]; 500 g ai/ha) | Foxtail, Giant plant response rating (0 to 100 scale) (giant foxtail [6]; [20]) | Plant response rating, Foxtail, Giant (giant foxtail [6]; [15]) | Foxtail, Giant plant response rating (giant foxtail [6]; 125 g ai/ha) | Foxtail, Giant plant response rating (giant foxtail [6]; 500 g ai/ha) | Wheat plant response rating (wheat; 125 g ai/ha) | Wheat plant response rating (wheat; 500 g ai/ha) | Blackgrass plant response rating (blackgrass; 125 g ai/ha) | Blackgrass plant response rating (blackgrass; 500 g ai/ha) | Foxtail, Giant plant response rating (giant foxtail [7]; [16]) | Plant response rating, Foxtail, Giant (giant foxtail [7]; [17]) | Foxtail, Giant plant response rating (giant foxtail [7]; [19]) | Velvetleaf plant response rating (0 to 100 scale) (velvetleaf [8]; [20]) | Plant response rating, Velvetleaf (velvetleaf [8]; [15]) | Velvetleaf plant response rating (velvetleaf [8]; 125 g ai/ha) | Velvetleaf plant response rating (velvetleaf [8]; 500 g ai/ha) | Pigweed plant response rating (redroot pigweed; [16]) | Plant response rating, Pigweed (redroot pigweed; [17]) | Pigweed plant response rating (redroot pigweed; [19]) | Surinam Grass plant response rating (0 to 100 scale) (Surinam grass; [20]) | Plant response rating, Surinam Grass (Surinam grass; [15]) | Surinam Grass plant response rating (Surinam grass; 125 g ai/ha) | Surinam Grass plant response rating (Surinam grass; 500 g ai/ha) | Barnyardgrass plant response rating (barnyardgrass [9]; [16]) | Plant response rating, Barnyardgrass (barnyardgrass [9]; [17]) | Barnyardgrass plant response rating (barnyardgrass [9]; [18]) | Barnyardgrass plant response rating (barnyardgrass [9]; [19]) | Barnyardgrass plant response rating (0 to 100 scale) (barnyardgrass [10]; [20]) | Plant response rating, Barnyardgrass (barnyardgrass [10]; [15]) | Barnyardgrass plant response rating (barnyardgrass [10]; 125 g ai/ha) | Barnyardgrass plant response rating (barnyardgrass [10]; 500 g ai/ha) | Lambsquarters plant response rating (0 to 100 scale) (lambsquarters; [20]) | Plant response rating, Lambsquarters (lambsquarters; [15]) | Lambsquarters plant response rating (lambsquarters; 125 g ai/ha) | Lambsquarters plant response rating (lambsquarters; 500 g ai/ha) | Ducksalad plant response rating (ducksalad) | Morningglory plant response rating (0 to 100 scale) (morningglory [11]; [20]) | Plant response rating, Morningglory (morningglory [11]; [15]) | Morningglory plant response rating (morningglory [11]; 125 g ai/ha) | Morningglory plant response rating (morningglory [11]; 500 g ai/ha) | Sedge, Umbrella plant response rating [12] | Morningglory plant response rating (morningglory [13]; [16]) | Morningglory plant response rating (morningglory [13]; [19]) | Oat, Wild plant response rating (wild oat; 125 g ai/ha) | Oat, Wild plant response rating (wild oat; 500 g ai/ha) | Cocklebur plant response rating (cocklebur; 125 g ai/ha) | Cocklebur plant response rating (cocklebur; 500 g ai/ha)
5: Plant response rating, Crabgrass, Large (large crabgrass [1]; [17]) | Crabgrass, Large plant response rating (large crabgrass [1]; [18]) | Morningglory plant response rating (morningglory [13]; [18]) | Velvetleaf plant response rating (velvetleaf [14]; [19])
